# System: phosphorylation of ERK (Thr202/Tyr204)
# Test: ERK phosphorylation inhibitory effect by Cell ELISA in AsPC-1 cells (Test Example 2)
# Format: cell-based
# Conditions: Homo sapiens, ASPC1, overnight treatment, Cell ELISA, read-out: IC50 (ERK phosphorylation inhibition)
# Method in brief: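 AsPC-1 cells (2.0×10^4/well, RPMI 1640 + 10% FBS) treated overnight with compounds (10 points, 10 μM to 0.3 nM final), then glyoxal-fixed and immunostained for phospho-ERK with IRDye 800CW secondary; 800-nm fluorescence read. IC50 by Sigmoid-Emax regression, normalized to DMSO (100%) and 1 μM trametinib (0%).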
row,IC50 [nM],Structure (SMILES)
1,21,"Cc1c(F)cc2[nH]ncc2c1-c1c(C2CC2)cc2c(N3C[C@@H]4C[C@H]3CN4)nc(OC3CCOCC3)nc2c1OCc1ccc(C(=O)N2CCN(Cc3ccc4c(c3)n(C)c(=O)n4C3CCC(=O)NC3=O)C[C@@H]2C)cc1 (stereo partly drawn) [Example 8, 3-(5-{[(3S)-4-{4-[({(7M)-6-cyclopropyl-4-[(1S,4S)-2,5-diazabicyclo[2.2.1]heptan-2-yl]-7-(6-fluoro-5-methyl-1H-indazol-4-yl)-2-[(oxan-4-yl)oxy]quinazolin-8-yl}oxy)methyl]benzoyl}-3-methylpiperazin-1-yl]methyl}-3-methyl-2-oxo-2,3-dihydro-TH-benzimidazol-1-yl)piperidine-2,6-dione]"
2,9,"CO[C@@H](C)COc1nc(N2C[C@@H]3C[C@H]2CN3)c2cc(C3CC3)c(-c3c(C)c(F)cc4[nH]ncc34)c(OCc3ccc(C(=O)N4CCN(Cc5ccc6c(c5)n(C)c(=O)n6C5CCC(=O)NC5=O)C[C@@H]4C)cc3)c2n1 (stereo partly drawn) [Example 10, 3-(5-{[(3S)-4-{4-[({(7M)-6-cyclopropyl-4-[(1S,4S)-2,5-diazabicyclo[2.2.1]heptan-2-yl]-7-(6-fluoro-5-methyl-1H-indazol-4-yl)-2-[(2S)-2-methoxypropoxy]quinazolin-8-yl}oxy)methyl]benzoyl}-3-methylpiperazin-1-yl]methyl}-3-methyl-2-oxo-2,3-dihydro-1H-benzimidazol-1-yl)piperidine-2,6-dione]"
3,16,"CO[C@@H](C)COc1cc(O[C@H]2CCNC2)c2cc(C3CC3)c(-c3c(C)c(F)cc4[nH]ncc34)c(OCc3ccc(C(=O)N4CCN(Cc5ccc6c(c5)n(C)c(=O)n6C5CCC(=O)NC5=O)C[C@@H]4C)cc3)c2n1 (stereo partly drawn) [Example 12, 3-[5-({(3S)-4-[4-({[6-cyclopropyl-7-(6-fluoro-5-methyl-1H-indazol-4-yl)-2-[(2S)-2-methoxypropoxy]-4-{[(3S)-pyrrolidin-3-yl]oxy}quinolin-8-yl]oxy}methyl)benzoyl]-3-methylpiperazin-1-yl}methyl)-3-methyl-2-oxo-2,3-dihydro-1H-benzimidazol-1-yl]piperidine-2,6-dione]"
4,24,"CO[C@@H](C)COc1cc(N2C[C@@H]3C[C@H]2CN3)c2cc(C3CC3)c(-c3c(C)c(F)cc4[nH]ncc34)c(OCc3ccc(C(=O)N4CCN(Cc5ccc6c(c5)n(C)c(=O)n6C5CCC(=O)NC5=O)C[C@@H]4C)cc3)c2n1 (stereo partly drawn) [Example 29, 3-(5-{[(3S)-4-{4-[({6-cyclopropyl-4-[(1S,4S)-2,5-diazabicyclo[2.2.1]heptan-2-yl]-7-(6-fluoro-5-methyl-1H-indazol-4-yl)-2-[(2S)-2-methoxypropoxy]quinolin-8-yl}oxy)methyl]benzoyl}-3-methylpiperazin-1-yl]methyl}-3-methyl-2-oxo-2,3-dihydro-1H-benzimidazol-1-yl)piperidine-2,6-dione]"

# — US20250145631A1, “HETEROCYCLIC COMPOUND ACTING ON G12D MUTANT KRAS PROTEIN” (Astellas Pharma Inc., priority 2022, published 2025)
